Seven compounds from ChEMBL document CHEMBL1909046, “DrugMatrix in vitro pharmacology data” can be followed below.

The IC50 is the concentration needed to halve the response being measured.

One data set deals with Cytochrome P450 2C19 (Homo sapiens, UniProt P33261). As to conditions: bti-tn-5b1-4.
The target in data set [1] is T1, Vasoactive intestinal polypeptide receptor 1 (Homo sapiens, UniProt P32241). Also: in other assays of this panel Not Active means under 50% inhibition at 10 µM.
T1 sequence (P32241 whole entry): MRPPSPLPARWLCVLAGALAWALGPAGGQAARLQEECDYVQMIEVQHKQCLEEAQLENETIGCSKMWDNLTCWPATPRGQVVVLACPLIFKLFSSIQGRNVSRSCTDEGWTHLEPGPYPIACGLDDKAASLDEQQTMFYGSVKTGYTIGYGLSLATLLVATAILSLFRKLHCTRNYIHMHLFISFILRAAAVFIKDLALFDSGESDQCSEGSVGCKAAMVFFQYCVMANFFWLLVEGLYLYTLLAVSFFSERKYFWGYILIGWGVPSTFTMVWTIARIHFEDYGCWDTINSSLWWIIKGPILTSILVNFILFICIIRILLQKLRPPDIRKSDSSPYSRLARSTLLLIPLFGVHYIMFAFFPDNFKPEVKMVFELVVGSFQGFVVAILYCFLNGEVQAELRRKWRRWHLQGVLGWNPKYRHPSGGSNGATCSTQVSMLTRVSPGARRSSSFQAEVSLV
The class given is cell membranes, Membrane. As to conditions: ht-29.

Data set [2] can be described thus: DRUGMATRIX: Phosphodiesterase PDE4 enzyme inhibition (substrate: [3H]cAMP + cAMP). The settings on record: u-937; Not Active = under 50% inhibition at 10 µM.
Data set [3] addresses T2, Alpha-1B adrenergic receptor (Rattus norvegicus, UniProt P15823).
T2 sequence (P15823 whole entry): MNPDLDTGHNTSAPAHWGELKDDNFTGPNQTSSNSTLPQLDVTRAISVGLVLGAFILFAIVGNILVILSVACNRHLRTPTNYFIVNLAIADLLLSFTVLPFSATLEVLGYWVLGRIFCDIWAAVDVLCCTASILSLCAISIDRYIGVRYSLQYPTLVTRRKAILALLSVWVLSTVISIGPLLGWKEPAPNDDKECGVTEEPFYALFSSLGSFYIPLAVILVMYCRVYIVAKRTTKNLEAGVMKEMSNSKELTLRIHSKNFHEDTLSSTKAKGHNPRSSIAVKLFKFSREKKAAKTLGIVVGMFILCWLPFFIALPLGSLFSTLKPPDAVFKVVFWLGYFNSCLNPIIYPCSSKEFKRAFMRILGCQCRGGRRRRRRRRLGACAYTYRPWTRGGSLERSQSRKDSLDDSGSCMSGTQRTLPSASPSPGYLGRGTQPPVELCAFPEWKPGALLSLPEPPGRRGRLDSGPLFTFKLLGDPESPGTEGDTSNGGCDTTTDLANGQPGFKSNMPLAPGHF
The data set is described as follows: DRUGMATRIX: Alpha-1B adrenergic receptor radioligand binding (ligand: prazosin). As to conditions: Not Active = under 50% inhibition at 10 µM. The class given is cell membranes, Wistar, Liver, Membrane.

Data set [4] deals with T3, Alpha-1D adrenergic receptor (Homo sapiens, UniProt P25100).
T3 sequence (P25100 whole entry): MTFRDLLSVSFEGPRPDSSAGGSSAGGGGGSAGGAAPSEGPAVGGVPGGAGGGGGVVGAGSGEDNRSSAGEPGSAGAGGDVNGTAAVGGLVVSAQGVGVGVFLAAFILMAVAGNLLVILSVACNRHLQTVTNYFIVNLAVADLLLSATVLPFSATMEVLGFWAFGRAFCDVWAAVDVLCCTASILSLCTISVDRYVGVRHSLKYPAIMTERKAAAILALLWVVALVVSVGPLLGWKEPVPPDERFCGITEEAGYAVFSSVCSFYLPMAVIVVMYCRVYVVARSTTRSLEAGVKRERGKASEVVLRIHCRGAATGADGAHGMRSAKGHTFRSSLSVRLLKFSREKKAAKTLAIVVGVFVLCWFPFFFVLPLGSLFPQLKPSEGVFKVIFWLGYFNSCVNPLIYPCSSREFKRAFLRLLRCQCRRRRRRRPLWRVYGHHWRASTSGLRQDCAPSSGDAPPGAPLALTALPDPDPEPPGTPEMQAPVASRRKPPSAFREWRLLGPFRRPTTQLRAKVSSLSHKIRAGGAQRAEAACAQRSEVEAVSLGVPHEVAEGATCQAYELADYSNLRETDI
The class given is cell membranes, HEK293, Membrane. The settings on record: hek293.

The target of data set [5] is T4, C-X-C chemokine receptor type 2 (Homo sapiens, UniProt P25025). Also: in other assays of this panel Not Active means under 50% inhibition at 10 µM.
T4 sequence (P25025 whole entry): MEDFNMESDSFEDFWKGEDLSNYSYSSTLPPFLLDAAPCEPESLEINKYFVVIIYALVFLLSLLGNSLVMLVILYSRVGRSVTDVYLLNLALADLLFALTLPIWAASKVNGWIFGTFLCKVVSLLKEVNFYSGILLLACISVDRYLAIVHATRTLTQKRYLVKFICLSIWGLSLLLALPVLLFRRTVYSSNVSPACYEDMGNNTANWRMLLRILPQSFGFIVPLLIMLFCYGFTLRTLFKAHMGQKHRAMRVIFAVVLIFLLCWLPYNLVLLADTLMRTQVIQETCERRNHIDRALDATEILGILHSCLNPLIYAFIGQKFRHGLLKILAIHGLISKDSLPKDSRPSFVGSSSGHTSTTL
The class given is cell membranes, Membrane. As to conditions: cho-k1.

Another data set has as its target T5, Thromboxane-A synthase (Homo sapiens, UniProt P24557).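 Also: enzyme inhibition assay with PGH2 supplied as substrate; in other assays of this panel Not Active means under 50% inhibition at 10 µM.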
T5 sequence (P24557 whole entry): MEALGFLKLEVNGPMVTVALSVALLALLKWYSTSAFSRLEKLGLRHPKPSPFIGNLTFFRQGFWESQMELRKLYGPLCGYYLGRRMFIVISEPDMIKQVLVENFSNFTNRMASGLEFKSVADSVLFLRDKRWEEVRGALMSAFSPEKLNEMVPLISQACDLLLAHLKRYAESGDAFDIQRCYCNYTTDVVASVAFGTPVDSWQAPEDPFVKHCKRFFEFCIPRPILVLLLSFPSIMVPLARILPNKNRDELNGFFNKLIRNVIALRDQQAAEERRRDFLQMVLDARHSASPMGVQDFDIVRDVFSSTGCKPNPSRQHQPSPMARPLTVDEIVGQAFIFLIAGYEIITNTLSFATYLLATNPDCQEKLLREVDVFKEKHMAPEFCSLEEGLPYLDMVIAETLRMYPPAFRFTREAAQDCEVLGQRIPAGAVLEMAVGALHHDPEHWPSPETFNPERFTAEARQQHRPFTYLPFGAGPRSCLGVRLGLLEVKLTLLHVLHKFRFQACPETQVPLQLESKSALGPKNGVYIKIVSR
Kind of data set: biochemical. The class given is tissue-based, Platelet.

Chain of Cytochrome P450 2C19 (P33261 whole entry): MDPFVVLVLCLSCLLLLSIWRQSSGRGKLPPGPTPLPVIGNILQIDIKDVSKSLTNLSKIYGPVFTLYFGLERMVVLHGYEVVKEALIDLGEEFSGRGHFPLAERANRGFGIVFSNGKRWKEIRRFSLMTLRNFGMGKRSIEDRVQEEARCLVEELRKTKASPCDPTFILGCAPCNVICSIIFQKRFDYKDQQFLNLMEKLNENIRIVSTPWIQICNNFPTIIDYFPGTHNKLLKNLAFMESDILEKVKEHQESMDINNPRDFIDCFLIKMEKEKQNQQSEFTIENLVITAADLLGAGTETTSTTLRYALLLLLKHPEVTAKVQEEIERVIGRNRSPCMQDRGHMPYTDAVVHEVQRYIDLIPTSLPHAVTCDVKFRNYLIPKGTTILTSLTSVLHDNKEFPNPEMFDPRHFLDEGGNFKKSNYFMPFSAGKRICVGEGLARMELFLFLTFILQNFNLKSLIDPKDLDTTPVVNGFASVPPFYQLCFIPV

For the compound `NC[C@H]1O[C@H](O[C@H]2[C@H](O)[C@@H](O[C@H]3O[C@H](CO)[C@@H](O)[C@H](N)[C@H]3O)[C@H](N)C[C@@H]2N)[C@H](N)C[C@@H]1O` [TOBRAMYCIN], the IC50 result (against Cytochrome P450 2C19; in data set [1]; in data set [2]; in data set [3]; in data set [4]; in data set [5]) was “Not Active” in each case. Moreover, on Thromboxane-A synthase (platelet), the 50% inhibitory concentration (IC50) entry was “Not Active”. Besides, the Ki result (at Cytochrome P450 2C19; in data set [2]) was “Not Active” each time.

Turning to `O=C(O)C(Cl)(Cl)Cl` [TRICHLOROACETIC ACID], the 50% inhibitory concentration (IC50) entry (against Cytochrome P450 2C19; in data set [1]; in data set [2]; in data set [3]; in data set [4]; in data set [5]) was “Not Active” throughout. At Thromboxane-A synthase (platelet), the IC50 entry was “Not Active”. Also, the Ki entry (on Cytochrome P450 2C19; in data set [2]) was “Not Active” throughout.

Regarding `CC(=O)O[C@H]1C[C@@H]2CC[C@@H]3[C@H](CC[C@@]4(C)[C@H]3C[C@H]([N+]3(C)CCCCC3)[C@@H]4OC(C)=O)[C@@]2(C)C[C@@H]1N1CCCCC1.[Br-]` [VECURONIUM BROMIDE], the concentration for half-maximal inhibition (IC50) result (against Cytochrome P450 2C19; in data set [1]; in data set [2]; in data set [3]; in data set [4]; in data set [5]) was “Not Active” each time. The IC50 entry on Thromboxane-A synthase (platelet) is given as “Not Active”. Also, the Ki entry (at Cytochrome P450 2C19; in data set [2]) was “Not Active” throughout.

For `COc1cc(C(=O)NS(=O)(=O)c2ccccc2C)ccc1Cc1cn(C)c2ccc(NC(=O)OC3CCCC3)cc12` [ZAFIRLUKAST], the IC50 entry (on Cytochrome P450 2C19; in data set [1]; in data set [2]; in data set [3]; in data set [4]; in data set [5]) was “Not Active” throughout. Moreover, the half-maximal inhibitory concentration (IC50) at Thromboxane-A synthase (read-out: IC50) came out at 3.81 µM. For the same compound, the Ki result (at Cytochrome P450 2C19; in data set [2]) was “Not Active” throughout.

With `Cc1cn([C@H]2C[C@H](N=[N+]=[N-])[C@@H](CO)O2)c(=O)[nH]c1=O` [ZIDOVUDINE], the 50% inhibitory concentration (IC50) result (against Cytochrome P450 2C19; in data set [1]; in data set [2]; in data set [3]; in data set [4]; in data set [5]) was “Not Active” in each case. Besides, the half-maximal inhibitory concentration (IC50) result against Thromboxane-A synthase (platelet) is “Not Active”. Also, the Ki entry (on Cytochrome P450 2C19; in data set [2]) was “Not Active” each time.

With STANNOUS FLUORIDE, the concentration for half-maximal inhibition (IC50) result (against Cytochrome P450 2C19; in data set [1]; in data set [2]; in data set [3]; in data set [4]; in data set [5]) was “Not Active” each time. Also, the half-inhibitory concentration (IC50) result against Thromboxane-A synthase (platelet) is “Not Active”. Also, the Ki entry (on Cytochrome P450 2C19; in data set [1]; in data set [2]; in data set [3]; in data set [4]; in data set [5]) was “Not Active” each time. Moreover, the Ki entry on Thromboxane-A synthase (platelet) is given as “Not Active”.

With THIMEROSAL, the half-maximal inhibitory concentration (IC50) result (against Cytochrome P450 2C19; in data set [1]; in data set [2]; in data set [3]; in data set [4]; in data set [5]) was “Not Active” throughout. Besides, the IC50 result against Thromboxane-A synthase (platelet) is “Not Active”. The Ki result (at Cytochrome P450 2C19; in data set [1]; in data set [2]; in data set [3]; in data set [4]; in data set [5]) was “Not Active” in each case. Further, on Thromboxane-A synthase (platelet), the Ki result was “Not Active”.
